From PMC5291822 (Bioorganic & medicinal chemistry, 2016)

Legend:
[1] = system: magnesium-dependent phosphatidate phosphohydrolase-1; details: off-target; cited from earlier work
[2] = biological target: T1, human GIVA cPLA2 (Homo sapiens, UniProt P47712); details: 0.091 mol fraction; reference inhibitor; cited from earlier work
T1 sequence (P47712 1-749): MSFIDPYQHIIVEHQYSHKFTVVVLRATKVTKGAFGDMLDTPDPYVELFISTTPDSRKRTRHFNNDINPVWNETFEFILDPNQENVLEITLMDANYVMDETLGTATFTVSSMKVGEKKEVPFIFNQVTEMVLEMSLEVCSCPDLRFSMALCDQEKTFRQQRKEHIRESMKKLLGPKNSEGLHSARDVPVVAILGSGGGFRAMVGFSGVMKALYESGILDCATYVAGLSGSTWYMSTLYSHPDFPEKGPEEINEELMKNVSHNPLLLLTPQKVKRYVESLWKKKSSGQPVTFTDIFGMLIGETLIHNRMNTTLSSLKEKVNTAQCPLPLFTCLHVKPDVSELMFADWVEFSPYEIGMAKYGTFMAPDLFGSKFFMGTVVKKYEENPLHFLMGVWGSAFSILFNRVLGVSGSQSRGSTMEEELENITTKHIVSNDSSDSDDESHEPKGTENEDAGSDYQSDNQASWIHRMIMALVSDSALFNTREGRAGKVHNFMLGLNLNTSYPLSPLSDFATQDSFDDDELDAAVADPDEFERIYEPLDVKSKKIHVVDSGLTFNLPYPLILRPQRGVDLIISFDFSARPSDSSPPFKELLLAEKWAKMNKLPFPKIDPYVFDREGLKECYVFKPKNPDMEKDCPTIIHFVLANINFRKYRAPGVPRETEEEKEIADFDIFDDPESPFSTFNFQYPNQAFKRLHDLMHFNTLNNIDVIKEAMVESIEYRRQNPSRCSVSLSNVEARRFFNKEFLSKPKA

[3] = system: experimental autoimmune encephalomyelitis; details: cited from earlier work
[4] = biological target: T1, human GIVA cPLA2; experiment: mixed micelle modified Dole assay, GIVA cPLA2; assay type: biochemical
[5] = biological target: T2, human GV sPLA2 (Homo sapiens, UniProt P39877); experiment: mixed micelle modified Dole assay, GV sPLA2; assay type: biochemical
T2 sequence (P39877 21-138): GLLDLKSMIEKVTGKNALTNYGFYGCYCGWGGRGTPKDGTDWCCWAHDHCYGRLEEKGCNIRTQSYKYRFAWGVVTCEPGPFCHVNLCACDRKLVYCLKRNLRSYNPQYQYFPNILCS

For O=C1O/C(=C/Br)CCC1c1cccc2ccccc12 (centres unmarked) [BEL, Bromoenol lactone], the “inhibition of magnesium-dependent phosphatidate phosphohydrolase-1 (in words)” value [1] is given as “able to inhibit”.

In the case of O=C(CCCCc1ccccc1)C(F)(F)C(F)(F)F [FKGK11], the “% Inhbition GIVA cPLA2” value [2] is listed as “N.D.[17] (N.D. signifies compounds with less than 25% inhibition (or no detectable inhibition).)” and the “clinical severity and progression of experimental autoimmune encephalomyelitis” value [3] is listed as “strong reduction in the clinical severity and progression”.

With CCCC[C@H](NC(=O)C(=O)CCCCc1ccc(OC)cc1)C(=O)NCC(=O)OC(C)(C)C [compound 12c, (S)-tert-Butyl 2-(2-(6-(4-methoxyphenyl)-2-oxohexanamido)hexanamido)acetate] the “inhibition of GIVA cPLA2 (in words)” value [4] was “weak inhibition” and the “inhibition of GV sPLA2 (in words)” value [5] was “weak inhibition”.
